Assay [1] relates to YAP nuclear translocation in HaCaT cells. Nature of the assay: YAP Translocation Assay (HaCaT Cells). It is filed as cell-based, human. The conditions noted are these: Homo sapiens, 24 hours. The protocol:
HaCaT cells were suspended at 0.4×10^6 cells/ml in DMEM+10% FBS with penicillin-streptomycin-glutamine. 50 μl of cells were dispensed into 384-well clear bottom assay plates (20,000 cells/well), and incubated overnight at 37° C. 100 nL test compound was transferred into the assay wells containing HaCaT cells using ECHO (Labcyte). After 24 hours incubation at 37° C., 7 μL of 32% PFA was dispensed into each well and incubated for 45 minutes at room temperature. Plates were washed 3 times with PBS, leaving 20 μL of PBS per well, then treated with 0.1% Triton and 1.5% BSA in PBS for 45 minutes at room temperature. Plates were washed for 5 times with PBS, leaving 20 μL of PBS per well. […] Plates were further washed 3 time with PBS, sealed and imaged on the high-content Opera imaging system (PerkinElmer).

The target in a further assay is LATS1 (Homo sapiens (Human), UniProt O95835). Nature of the assay: LATS1 biochemical assay (Table 1A, Compound Examples 1-290; method in the earlier part).

Molecules are shown by their SMILES.

From patent publication US11458138B2 (Novartis AG, priority 2017, dated 2022) come the findings set out here.

Sequence of LATS1 (O95835 whole entry, looked up): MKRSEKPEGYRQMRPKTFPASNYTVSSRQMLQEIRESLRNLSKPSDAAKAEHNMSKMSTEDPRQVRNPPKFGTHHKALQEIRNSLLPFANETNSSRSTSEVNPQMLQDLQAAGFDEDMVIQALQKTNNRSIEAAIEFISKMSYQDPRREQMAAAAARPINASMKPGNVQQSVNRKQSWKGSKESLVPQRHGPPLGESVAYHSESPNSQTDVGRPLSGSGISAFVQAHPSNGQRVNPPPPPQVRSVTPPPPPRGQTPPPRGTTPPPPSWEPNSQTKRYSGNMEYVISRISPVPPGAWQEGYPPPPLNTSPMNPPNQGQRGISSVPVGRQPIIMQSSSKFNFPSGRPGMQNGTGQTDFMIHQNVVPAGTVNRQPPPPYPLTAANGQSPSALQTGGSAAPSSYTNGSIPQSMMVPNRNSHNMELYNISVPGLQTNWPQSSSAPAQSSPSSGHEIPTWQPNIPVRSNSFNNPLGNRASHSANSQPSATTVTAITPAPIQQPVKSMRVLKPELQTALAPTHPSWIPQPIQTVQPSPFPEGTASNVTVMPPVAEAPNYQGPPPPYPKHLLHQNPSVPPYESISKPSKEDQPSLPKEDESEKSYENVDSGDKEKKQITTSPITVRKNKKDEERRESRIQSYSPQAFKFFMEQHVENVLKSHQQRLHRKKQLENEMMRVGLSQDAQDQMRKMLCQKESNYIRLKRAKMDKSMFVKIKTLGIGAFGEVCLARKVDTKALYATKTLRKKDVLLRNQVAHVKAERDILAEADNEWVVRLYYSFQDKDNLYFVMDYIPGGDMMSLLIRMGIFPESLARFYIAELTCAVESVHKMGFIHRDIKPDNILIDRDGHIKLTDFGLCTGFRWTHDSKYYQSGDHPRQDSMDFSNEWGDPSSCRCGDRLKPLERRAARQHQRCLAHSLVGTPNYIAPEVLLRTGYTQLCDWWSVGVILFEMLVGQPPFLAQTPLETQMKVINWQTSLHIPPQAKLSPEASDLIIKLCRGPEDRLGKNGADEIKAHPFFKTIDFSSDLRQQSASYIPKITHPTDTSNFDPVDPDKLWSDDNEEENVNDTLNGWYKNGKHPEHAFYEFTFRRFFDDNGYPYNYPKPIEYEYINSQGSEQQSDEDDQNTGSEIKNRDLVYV
Sequence of LATS1 (Q7L9L4 whole entry partner, looked up): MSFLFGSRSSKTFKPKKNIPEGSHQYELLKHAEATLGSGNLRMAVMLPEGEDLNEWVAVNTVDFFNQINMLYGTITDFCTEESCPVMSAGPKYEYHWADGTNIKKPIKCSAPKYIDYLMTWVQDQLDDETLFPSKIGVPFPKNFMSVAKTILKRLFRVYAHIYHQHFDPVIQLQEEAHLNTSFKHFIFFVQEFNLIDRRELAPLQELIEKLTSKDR

Turning to `COC(=O)[C@H]1C[C@@H](Nc2nc(-c3ccncc3)nc3cnccc23)C1` [Example 54, methyl (1s,3s)-3-{[2-(pyridin-4-yl)pyrido[3,4-d]pyrimidin-4-yl]amino}cyclobutane-1-carboxylate], the EC50 in assay [1] was > 20000 nM. Also, at LATS1, the IC50 is 78 nM.
On the same counts, the results for `CN(c1nc(-c2cn[nH]c2)nc2cnccc12)C1(C)CC1` [Example 171, N-methyl-N-(1-methylcyclopropyl)-2-(1H-pyrazol-4-yl)pyrido[3,4-d]pyrimidin-4-amine] are 17200 nM and 54 nM.
`Cc1cnccc1-c1nc(N(C)C(C)C)c2ccncc2n1` [Example 128, N-methyl-2-(3-methylpyridin-4-yl)-N-(propan-2-yl)pyrido[3,4-d]pyrimidin-4-amine]: in assay [1], the EC50 is > 20000 nM. This compound showed an IC50 at LATS1 of 77 nM.
For the compound `CC(C)(CCO)Nc1cc(-c2ccncc2)nc2cnccc12` [Example 260, 3-methyl-3-{[2-(pyridin-4-yl)-1,7-naphthyridin-4-yl]amino}butan-1-ol], in assay [1], the EC50 was > 20000 nM. For the same compound, it took 459 nM to reach half-maximal inhibition against LATS1 (IC50).
For `CC(C)(O)CC(C)(C)Nc1nc(-c2ccncc2C#N)nc2cnccc12` [Example 146, 4-{4-[(4-hydroxy-2,4-dimethylpentan-2-yl)amino]pyrido[3,4-d]pyrimidin-2-yl}pyridine-3-carbonitrile], in that order: > 20000 nM and 33 nM.
Regarding `OCC(CO)(CO)Nc1nc(-c2ccncc2)nc2cnccc12` [Example 36, 2-(hydroxymethyl)-2-{[2-(pyridin-4-yl)pyrido[3,4-d]pyrimidin-4-yl]amino}propane-1,3-diol], the EC50 in assay [1] was > 20000 nM. Half-maximal inhibition on LATS1 (IC50) required 199 nM.
Regarding `OCCOCCNc1nc(-c2ccncc2)nc2cnccc12` [Example 35, 2-(2-{[2-(pyridin-4-yl)pyrido[3,4-d]pyrimidin-4-yl]amino}ethoxy)ethan-1-ol], the EC50 in assay [1] was > 20000 nM. Also, on LATS1, it took 118 nM to reach half-maximal inhibition (IC50).
On the same counts, the results for `CC(C)(CC(=O)O)NC(=O)CC(C)(C)Nc1nc(-c2ccncc2)nc2cnccc12` [Example 37, 3-methyl-3-(3-methyl-3-{[2-(pyridin-4-yl)pyrido[3,4-d]pyrimidin-4-yl]amino}butanamido) butanoic acid] are > 6670 nM and 233 nM.
Take `CC(C)C(=O)Nc1nc(-c2ccncc2)nc2cnccc12` [Example 43, 2-methyl-N-[2-(pyridin-4-yl)pyrido[3,4-d]pyrimidin-4-yl]propanamide]: in assay [1], the EC50 was > 20000 nM. Further, on LATS1, the IC50 was > 1970 nM.
On the same counts, the results for `CCN(CC)c1cc(-c2ccncc2Cl)nc2cnccc12` [Example 286, 2-(3-chloropyridin-4-yl)-N,N-diethyl-1,7-naphthyridin-4-amine] are > 20000 nM and 560 nM.
`c1ccc(Nc2nc(-c3ccncc3)nc3cnccc23)cc1` [Example 92, N-phenyl-2-(pyridin-4-yl)pyrido[3,4-d]pyrimidin-4-amine]: the EC50 in assay [1] was > 20000 nM. At LATS1, this compound showed an IC50 of 304 nM.
As to `CCN(CC)c1cc(-c2ccncc2)nc2cnccc12` [Example 266, N,N-diethyl-2-(pyridin-4-yl)-1,7-naphthyridin-4-amine], the EC50 in assay [1] turned out to be 5350 nM. At LATS1, this compound registered an IC50 of 9 nM.
For `CCCNc1nc(-c2c[nH]nc2C2CC2)nc2cnccc12` [Example 163, 2-(3-cyclopropyl-1H-pyrazol-4-yl)-N-propylpyrido[3,4-d]pyrimidin-4-amine], in that order: > 20000 nM and 51 nM.
On the same counts, the results for `CC(C)(Nc1nc(-c2ccncc2)nc2cnccc12)C12CC3CC(CC(C3)C1)C2` [Example 42, N-[2-(adamantan-1-yl)propan-2-yl]-2-(pyridin-4-yl)pyrido[3,4-d]pyrimidin-4-amine] are 11600 nM and 711 nM.
For `Cc1c(-c2nc(NC(C)(C)C)c3ccncc3n2)c2cccnc2n1S(=O)(=O)c1ccccc1` [Example 113, 2-[1-(benzenesulfonyl)-2-methyl-1H-pyrrolo[2,3-b]pyridin-3-yl]-N-tert-butylpyrido[3,4-d]pyrimidin-4-amine], in that order: > 20000 nM and 235 nM.
For the compound `CC(CO)(Nc1nc(-c2ccncc2)nc2cnccc12)C(F)(F)F` (stereo not shown) [Example 67, 3,3,3-trifluoro-2-methyl-2-{[2-(pyridin-4-yl)pyrido[3,4-d]pyrimidin-4-yl]amino}propan-1-ol], a half-maximal response in assay [1] (EC50) required 685 nM. The IC50 on LATS1 came out at 2 nM.
With `CC(Nc1nc(-c2cn[nH]c2)nc2cnccc12)c1ccncc1` (stereo not shown) [Example 183, 2-(1H-pyrazol-4-yl)-N-[1-(pyridin-4-yl)ethyl]pyrido[3,4-d]pyrimidin-4-amine], the EC50 in assay [1] was > 20000 nM. At LATS1, this compound came in with an IC50 of 797 nM.
For the compound `CC(C)(Nc1nc(-c2ccncc2)nc2cnccc12)C(=O)O` [Example 34, 2-methyl-2-{[2-(pyridin-4-yl)pyrido[3,4-d]pyrimidin-4-yl]amino}propanoic acid], in assay [1], the EC50 is > 20000 nM. The IC50 against LATS1 was determined as 95 nM.
The compound `CC(C)(O)CC(C)(C)Nc1nc(-c2cn[nH]c2)nc2cnccc12` [Example 166, 2,4-dimethyl-4-{[2-(1H-pyrazol-4-yl)pyrido[3,4-d]pyrimidin-4-yl]amino}pentan-2-ol] displayed an EC50 in assay [1] of 8450 nM. The compound also yielded an IC50 on LATS1 of 14 nM.
Consider `CC(C)(CS(C)(=O)=O)Nc1nc(-c2ccncc2)nc2cnccc12` [Example 28, N-(1-methanesulfonyl-2-methylpropan-2-yl)-2-(pyridin-4-yl)pyrido[3,4-d]pyrimidin-4-amine], for which the EC50 in assay [1] was > 20000 nM. At LATS1, this compound yielded an IC50 of 36 nM.
Consider `CC1(Nc2nc(-c3cnoc3)nc3cnccc23)CC1` [Example 152, N-(1-methylcyclopropyl)-2-(1,2-oxazol-4-yl)pyrido[3,4-d]pyrimidin-4-amine], for which the EC50 in assay [1] is > 20000 nM. The IC50 against LATS1 is > 2500 nM.
As to `Fc1cnccc1-c1cc(N2CCOCC2)c2ccncc2n1` [Example 279, 2-(3-fluoropyridin-4-yl)-4-(morpholin-4-yl)-1,7-naphthyridine], the EC50 in assay [1] was > 20000 nM. Besides, the IC50 on LATS1 was > 2500 nM.
Consider `CCCNc1nc(-c2cn(C)c3ncccc23)nc2cnccc12` [Example 165, 2-{1-methyl-1H-pyrrolo[2,3-b]pyridin-3-yl}-N-propylpyrido[3,4-d]pyrimidin-4-amine], for which the 50% effective concentration (EC50) in assay [1] was > 20000 nM. Further, the IC50 against LATS1 was > 2500 nM.
With `C[C@@H](Nc1nc(-c2cn[nH]c2)nc2cnccc12)c1ccccc1` [Example 167, N-[(1R)-1-phenylethyl]-2-(1H-pyrazol-4-yl)pyrido[3,4-d]pyrimidin-4-amine], in assay [1], the EC50 is > 20000 nM. The same compound registered an IC50 against LATS1 of 143 nM.
For `CCCNc1nc(-c2ccncc2C)nc2cnccc12` [Example 164, 2-(3-methylpyridin-4-yl)-N-propylpyrido[3,4-d]pyrimidin-4-amine], in assay [1], the EC50 was > 20000 nM. Besides, it took 159 nM to reach half-maximal inhibition at LATS1 (IC50).
Regarding `CC(C)(C)Nc1nc(-c2ccncc2C(F)(F)F)nc2cnccc12` [Example 130, N-tert-butyl-2-[3-(trifluoromethyl)pyridin-4-yl]pyrido[3,4-d]pyrimidin-4-amine], the EC50 in assay [1] is > 20000 nM. The compound further came in with an IC50 against LATS1 of 1150 nM.

The EC50 is the concentration that produces a half-maximal response. A low value points to an effect from little substance. Usually IC50 stands for the concentration that gives 50% inhibition. Read a low IC50 as inhibition by little substance.
